{"source": "patent US9999632B2", "about": "“Inhibition of pancreatic lipase” (RD Biomed Limited, priority 2009, dated 2018)", "origin": "cited, not measured here", "conditions": "patients treated with Orlistat; cited from earlier work"}
{"molecule": "CCCCCCCCCCC[C@@H](C[C@@H]1OC(=O)[C@H]1CCCCCC)OC(=O)[C@H](CC(C)C)NC=O", "note": "[Orlistat, tetrahydrolipstatin]", "values": [{"measurement": "patients affected by adverse effects (steatorrhoea, bloating, oily spotting, faecal urgency, faecal incontinence)", "value": "up to 40 % of patients"}]}
